Earlier results on 2 substances are cited in paper PMC11369081, “Molecular mechanism of prolactin-releasing peptide recognition and signaling via its G protein-coupled receptor” (Cell Discovery, 2024).

Ends that are not written are not given here.

This series concerns PrRPR. The settings on record: cited from earlier work. The procedure:
In both structures, the intramolecular motif of W8, Y9, and R12 within PrRP20 stabilizes its α-helical structure (Fig. 2h). […] Th ...

“C-terminal heptapeptide (I14–F20): shortest effective analog is a C-terminal heptapeptide (I14–F20) (IRPVGRF; ends and bridges not checked; UniProt P81277 47-53, looked up, fragment)”: the “affinity of shortest effective analog” value (deletion analysis of PrRP20 N-terminal region, vs PrRP20, ref [9]) is recorded as “substantially lower affinity”.
Consider “PrRP20 analog (W8–F20): PrRP20 analog (W8–F20) (WYASRGIRPVGRF; ends and bridges not checked; UniProt P81277 41-53, looked up, fragment)”, for which, where the note is “structure-activity relationship studies, ref [21]”, the activity in vitro entry is “did not show reduced activity in vitro”.
